Literature values, collected in patent USRE46284E1, “Method of administrating an anticancer drug containing α, α, α-trifluorothymidine and thymidine phosphorylase inhibitor” (TAIHO PHARMACEUTICAL CO., LTD., priority 2005, dated 2017).

Details: human, intravenous administration

- half-life in the blood: approximately 12 minutes
Structure (SMILES): O=c1[nH]c(=O)n([C@H]2C[C@H](O)[C@@H](CO)O2)cc1C(F)(F)F [FTD, α,α,α-trifluorothymidine]
